Experimental data: paper PMC11574108, “4-Furanylvinylquinoline derivative as a new scaffold for the design of oxidative stress initiator and glucose transporter inhibitor drugs” (Scientific Reports, 2024)

Experiments:
Type in all cases: cell-based, human
K562 = assay: Monolayer antiproliferative MTS assay; details: 2D model; for IC50: MTS, 72-h incubation
Source text: (§1) The human colon carcinoma cell line HCT 116 with wild-type p53 (p53^+/+) and the human glioblastoma cell line U-251 were obtained from ATCC, while the HCT 116 with a p53 deletion (p53^−/−) was kindly provided by Prof. M. Rusin from the Maria Sklodowska-Curie Memorial Cancer Center and Institute of Oncology in Gliwice, Poland. The human chronic myelogenous leukaemia cell line K562 and the normal human cell dermal fibroblast cell line NHDF were purchased from Sigma-Aldrich and PromoCell, respectively. Both the HCT 116 and U-251 cell lines were cultured in Dulbecco’s modified Eagle’s medium (DMEM) supplemented with 10% inactivated foetal bovine serum (FBS). The DMEM for the NHDF contained 15% non-inactivated FBS. K562 cells were cultured in RPMI medium completed by 10% inactivated FBS. Additionally, the media were supplemented with antibiotics (streptomycin and penicillin – 1% v/v; Sigma-Aldrich). The cell culture was conducted in 75 cm^2 flasks (Nunc) under standard conditions (37 °C, 5% CO2 humidified atmosphere). Furthermore, the cell lines were frequently tested for mycoplasma using the qRT-PCR technique with specific Mycoplasma primers to confirm the lack of contamination.
(§2) The cells were seeded in 96-well plates (Nunc) with 5,000 or 4,000 cells per well for the cancer cells and NHDF, respectively, and incubated under standard conditions at 37 °C overnight. The culture media were then changed for freshly prepared solutions of the tested compounds in various concentrations. After 72-h incubation the antiproliferative assay was carried out as follows: the solutions of the compounds were changed in each well to 100 µL DMEM without phenol red and 20 µL of CellTiter 96 AQueous One Solution-MTS (Promega). The plates were incubated for 1 h at 37 °C, and the absorbance was then measured at 490 nm using a multi-plate reader (Synergy 4, BioTek). The experiment for each sample was repeated at least three times. The results are presented as the half-maximal inhibitory concentration (IC50) values, which were estimated in comparison to untreated cells (control) and calculated using GraphPad Prism v.8.0 (USA).
(§3) However, the antiproliferative activity of derivative 13 with furan a ring was surprising. […] For this purpose, we selected two pancreatic cancer cell lines: AsPC-1, which is characterised by a deletion of the p53 protein[20] and PANC-1, which carries an R273H mutation. This mutation also occurred in the glioblastoma U-251 cell line[22],[23]. An additional non-adherent line that carries the TP53 mutation that results in the absence of p53 is the K562 leukemic cell line[24]. […] Moreover, 13 was selective toward […], as indicated by its SI values (3.35–9.41). Among all of the tested cell lines, the highest activity of the compound was found against the HCT 116 cells with the wild-type p53 protein (0.069 µM). […] The p53 protein also interacts with the metabolic pathways that are associated with glucose transport[25] as well as small molecules. In light of the above-mentioned facts, we also determined the cytotoxicity of the GLUT inhibitor BAY-876, which is based on a quinoline scaffold. […] Furthermore, BAY-876 was also toxic to normal cells.

U-251 = assay: Monolayer antiproliferative MTS assay; details: 2D monolayer; for IC50: MTS, 72-h incubation
Source text: as §1, §2, §3

CDK1 = assay: qRT-PCR, CDK1 mRNA expression; details: for CDK1 mRNA level vs control: HCT 116 p53-/-, 24 h
Method: The cells were seeded in 35 mm Petri dishes at a density of 500,000 cells and incubated at 37 °C for 24 h. The total RNA was isolated after incubation with solutions of 13 (0.5 µM and 1.0 µM) for 24 h and 48 h, respectively. The isolation from the samples was carried out according to a TRIzol™ Reagent protocol (Thermo Fisher Scientific). Synthesis of cDNA was performed with 2 µg of total RNA using a GoScript™ Reverse Transcriptase kit (Promega) with Oligo(dT)23 Primers. Real-Time PCR was carried out using a CFX96 Touch™ Real-Time PCR Detection System (Bio-Rad) in 10 µL reaction volume. Each sample contained SsoAdvanced™ Universal SYBR Green Supermix (Bio Rad), a specific primer pair mix (0.5 µM each), and 1 µL of cDNA. The reaction was performed under the following conditions: initial denaturation at 95 °C for 30 s; 40 cycles of denaturation at 95 °C for 15 s; annealing (primer-specific temperature) for 30 s, and extension at 72 °C for 60 s. The obtained data were analysed based on a comparison of the expression of the target genes and normalized to a reference gene (GAPDH) using the Livak-Schmittgen (2^−ΔΔCT) method. The experiments were performed at least three times.
In the next step, we decided to investigate the impact of derivative 13 on the mRNA level of CDK1 (the gene encoding one of the cell cycle regulation proteins) at various concentrations and time points (Fig. 4B). In the HCT 116 p53^+/+ cells after the application 0.5 µM of derivative 13, we noticed a slight increase in the expression of CDK1 after both 24 and 48-h. […] However, after a further incubation time, the mRNA level of this gene was similar to that in the untreated cells.

IC50 (K562): 93 ± 9 nM
IC50 (K562; Homo sapiens, K562, 72 h): < 100 nM
IC50 (U-251): 87 ± 7 nM
IC50 (U-251; Homo sapiens, U-251, 72 h): < 100 nM
Structure (SMILES): O=[N+]([O-])c1ccc(/C=C/c2ccnc3ccccc23)o1 [Compound 13]
SI (selectivity index) K562 (K562; relative to NHDF): 6.98
SI (selectivity index) U-251 (U-251; relative to NHDF): 7.46
CDK1 mRNA level vs control (CDK1; 0.5 µM): two-fold higher
CDK1 mRNA level vs control (CDK1; 1 µM): around one and the half times
CDK1 mRNA expression vs control (CDK1; U-251, 24 h): greater than two-fold upregulation
